In patent publication US20150216182A1, “COMPOSITIONS AND METHODS OF THE ATTRACTION AND REPULSION OF INSECTS” (Olfactor Laboratories, Inc., priority 2012, published 2015):
Where a name gives a salt, the structure may show the parent alone. Read-outs that look alike come from different tables or passages of the source.

Columns and labels:
[1] = test system: larvae; experiment: larvicidal activity assay; assay type: in vivo; details: for pest or weed control at 0.25 %: read-out: % Lethality with 0.25% compound conc.; for pest or weed control at 100 ppm: read-out: % Lethality at 100 ppm
Experimental: A 6-well plate (Corning Life Sciences, Tewksbury, Mass.) is used to test a compound's larvicidal activity. […] After a 24 hour exposure, the number of dead larvae are counted and recorded.
The results are presented in Table 17 as % lethality (the number of dead larvae divided by the total number of larvae).

[2] = test system: bed bugs (Cimex lectularius); experiment: bed bug repellency assay; assay type: in vivo; details: compound or combination on filter paper harborage, ten bed bugs
Method in brief: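 Ten Cimex lectularius per talc-lined petri dish chose between folded filter-paper harborages treated with isopropyl alcohol alone or compound in isopropyl alcohol […], dried before use. Bugs moved freely 5 min; occupancy beneath each tent recorded, with a solvent-only pairing as control.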

[3] = test system: bed bugs; experiment: bed bug luring assay; assay type: in vivo; details: cottonball with 100 microliters solution, total 100 mg compound(s), 10 bed bugs, overnight
Experimental: Assays were conducted to measure the ability of compounds and compound combinations to attract bed bugs. A testing arena habitat comprising a small plastic container was placed inside of a larger, secondary container. The top half inch was removed from two bathroom sized solo cups and each cup was placed on opposite sides of the testing arena habitat, one inch away from the wall. Each outer part of the cup was textured using sandpaper, as bed bugs cannot climb smooth surfaces. A paper towel was used to line the floor of the testing arena habitat. The top, removed portion of one of the solo cups was placed mouth side down in the center of the arena. In one of the cups, a cottonball was placed and treated with 100 microliters of compound or compound combination solution [comprising a total of 100 mg of compound(s).] 10 bed bugs were placed within the center cut off cup top and the testing arena habitat was covered and placed within a dark, climate controlled room overnight. The next day, the number of bed bugs that crawled into the baited cup were recorded and the % attractancy was calculated as the percentage of bugs that crawled into the baited cup as compared to the total number of bed bugs. In the Table, “Att” refers to attractancy and “Cmpd” refers to compound.

[4] = test system: female mosquitoes; experiment: whole plant or invertebrate; details: 2 h; for mortality at 200 µg/mL: read-out: % mortality with 0.2 mg/ml; for mortality at 2000 µg/mL: read-out: % mortality with 2 mg/ml
[5] = test system: cpA neurons; experiment: extracellular single-sensillum electrophysiology: activation of cpA neuronal activity; details: for Class: Table 6, single compounds, increase over baseline cpA neuronal activity; for Comp B Class: component B tested individually; for Class B (activator class of the individual component): Table 15, single component alone, Mod Actv
[6] = test system: female mosquitoes
[7] = test system: cpA neurons; experiment: extracellular single-sensillum electrophysiology: inhibition of CO2-responsive (cpA) neuronal activity; details: for Class: Table 10, single compounds, percent reduction in cpA activity compared to baseline; for Class (inhibitor class of the individual component): Inh = inhibitor
[8] = test system: cpB and cpC neurons; experiment: extracellular single-sensillum electrophysiology: beta activators; assay type: in vivo, Aedes aegypti; details: for Class (beta activator, individual component) / Class A (beta activator, individual component): Beta Actv; for beta activator (stimulates cpB and cpC neuronal activity): single compound; for Class A (beta activator, individual component): Table 15, single component alone
Excerpt: Three types of CO2-responsive neurons reside in the maxillary palp of mosquitoes. These include cpA, cpB and cpC neurons. […] These neurons produce spikes with much lower amplitude than those produced by cpA neurons. Although the activity from cpB and cpC neurons cannot easily be distinguished from one another, their collective activity can be distinguished from cpA neurons due to their characteristic spikes. This is useful in the identification of compounds and compositions that only activate or inhibit cpB and cpC neurons or compounds and compositions that activate or inhibit both.
Carbon dioxide receptor neurons are housed within the basiconic sensilla of the mosquito maxillary palp. While activity from cpA neurons produces the largest amplitude spike, cpB and cpC neurons present in this region are also responsive to skin odors. Activity from these neurons can also be detected through the electrophysiological methods described in Example 1.
Although the activity from cpB and cpC neurons cannot easily be distinguished from one another, their collective activity can be distinguished from cpA neurons due to their production of spikes with much lower amplitude than those produced by cpA neurons.

[9] = 0.25% compound, 24 hour exposure, dead larvae / total larvae
[10] = 100 ppm compound, 24 hour exposure, dead larvae / total larvae
[11] = single compound, 0.2 mg/ml on filter paper, female mosquitoes, two hours
[12] = single compound, 2 mg/ml on filter paper, female mosquitoes, two hours
[13] = Table 16, single component alone
[14] = Table 13, single component alone

Molecule | pest or weed control at 0.25 % [1, 9] | pest or weed control at 100 ppm [1, 10] | % Rep (bed bug repellency) [2] | % Att (bed bug attractancy) [3] | mortality at 200 µg/mL [4] | mortality at 2000 µg/mL [4] | Class [5] | Comp B Class ([5]; Table 9) | Class [7] | beta activator (stimulates cpB and cpC neuronal activity) [8] | further results
COc1cnccn1 [OLI0003, 2-methoxypyrazine] | 100% | 0% | 22% | 30% | 0% | 0% | Strong Activator (strong activators yield an increase in activity that is >60 spk/sec over baseline neuronal activity) |  |  |  | 
CSC(C)=O [OLI0025, methanethiol acetate] |  |  |  | 20% |  |  | Moderate Activator (Moderate activators yield an increase in neuronal activity that is between 40 and 60 spk/sec over baseline neuronal activity) | Mod |  |  | % Lethality with 0.25% compound conc. [1, 9]: 100% lethal; % Lethality at 100 ppm [1, 10]: 0% lethal; % mortality with 0.2 mg/ml ([6]; in vivo): 0%; % mortality with 2 mg/ml ([6]; in vivo): 0%; Class B (activator class of the individual component) [5]: Mod
C/C=C/C(=O)OC [OLI0026, methyl crotonate] | 87.5% | 0% | 38% | 20% | 0% | 0% | Moderate Activator (Moderate activators yield an increase in neuronal activity that is between 40 and 60 spk/sec over baseline neuronal activity) | Mod |  |  | Class B (activator class of the individual component) [5]: Mod
O=CCCc1ccccc1 [OLI0029, phenylpropylaldehyde] |  |  | 100% |  |  |  | Moderate Activator (Moderate activators yield an increase in neuronal activity that is between 40 and 60 spk/sec over baseline neuronal activity) | Mod |  |  | % Lethality with 0.25% compound conc. [1, 9]: 100% lethal; % Lethality at 100 ppm [1, 10]: 0% lethal; % mortality with 0.2 mg/ml [6, 11]: 0%; % mortality with 2 mg/ml [6, 12]: 15%; Comp A Class ([5]; Table 9, component A tested individually): Mod; Class B (activator class of the individual component) [5]: Mod
CC(=O)/C=C/C=C(C)C [OLI0059] |  |  | 87% |  |  |  | Mild Activator (mild activators yield an increase in neuronal activity that is between 20 and 40 spk/sec over baseline neuronal activity) |  |  |  | % Lethality with 0.25% compound conc. [1, 9]: 100% lethal; % Lethality at 100 ppm [1, 10]: 58% lethal; % mortality with 0.2 mg/ml [6, 11]: 0%; % mortality with 2 mg/ml [6, 12]: 0%
CCCOC=O [OLI0063, propyl formate] |  |  |  | 30% | 0% | 0% | Mild Activator (mild activators yield an increase in neuronal activity that is between 20 and 40 spk/sec over baseline neuronal activity) | Mild |  |  | pest or weed control at 100 ppm ([1]; 24 h): 0%; pest or weed control at 0.25 % ([1]; 24 h): 0%
COc1nccnc1C [OLI0070, 2-methoxy-3-methylpyrazine] | 100% | 0% |  | 10% | 0% | 0% |  |  | Strong Inhibitor (strong inhibitors (reducing activity >60%)) |  | 
CCCCC(=O)OCc1ccco1 [OLI0074, furfurylpentanoate] | 100% | 0% | 100% |  | 0% | 0% |  |  | Moderate Inhibitor (moderate inhibitors (reducing activity by 40-60%)) | beta activator | Class (beta activator, individual component) [8, 13]: Beta; Class (inhibitor class of the individual component) [7, 14]: Mod; Class (inhibitor class of the individual component) [7, 13]: Mod
C/C=C(\C)C(=O)OC(CC)CCCCC (stereo not drawn) [OLI0079, 1-ethylhexyl tiglate] | 100% | 0% | 49% |  | 0% | 15% |  |  | Mild Inhibitor (mild inhibitors (reducing activity by 20-40%)) | beta activators | inhibitor class of single compound ([7]; single compound): mild cpA inhibitors
CC/C=C\CCCCO [OLI0084, cis-5-octen-1-ol] | 100% | 0% | 82% |  | 0% | 95% |  |  | Mild Inhibitor (mild inhibitors (reducing activity by 20-40%)) | beta activator | Class (beta activator, individual component) [8, 13]: Beta; Class (inhibitor class of the individual component) [7, 14]: Mild; Class (inhibitor class of the individual component) [7, 13]: Mild
CC/C=C\CCOC=O [OLI0096, cis-3-hexenyl formate] | 30% | 0% | 6% |  | 0% | 0% |  |  |  | beta activators | Class A (beta activator, individual component) [8]: Beta
CC(C)CCOC=O [OLI0098, isoamyl formate] |  |  |  |  |  |  |  |  |  | beta activators | Class A (beta activator, individual component) [8]: Beta
CC/C=C/CC(=O)OC [OLI0100, methyl (E)-hex-3-enoate] | 100% | 0% | 17% |  | 0% | 0% |  | Beta |  | beta activators | Class (beta activator, individual component) [8, 14]: Beta; Class A (beta activator, individual component) [8]: Beta; Class (beta activator, individual component) [8, 13]: Beta
furfurylpentenoate [OLI0088] |  |  |  |  |  |  |  |  | Mild Inhibitor (mild inhibitors (reducing activity by 20-40%)) |  | Class (beta activator, individual component) [8, 13]: Beta; Class (inhibitor class of the individual component) [7, 13]: Mod
